Source: patent US20170298051A1, “ACTIVATOR OF ADIPONECTIN RECEPTOR” (THE UNIVERSITY OF TOKYO, priority 2013, published 2017)

Target: T1, AdipoR1 (Homo sapiens, UniProt Q96A54)
T1 sequence (Q96A54 1-375): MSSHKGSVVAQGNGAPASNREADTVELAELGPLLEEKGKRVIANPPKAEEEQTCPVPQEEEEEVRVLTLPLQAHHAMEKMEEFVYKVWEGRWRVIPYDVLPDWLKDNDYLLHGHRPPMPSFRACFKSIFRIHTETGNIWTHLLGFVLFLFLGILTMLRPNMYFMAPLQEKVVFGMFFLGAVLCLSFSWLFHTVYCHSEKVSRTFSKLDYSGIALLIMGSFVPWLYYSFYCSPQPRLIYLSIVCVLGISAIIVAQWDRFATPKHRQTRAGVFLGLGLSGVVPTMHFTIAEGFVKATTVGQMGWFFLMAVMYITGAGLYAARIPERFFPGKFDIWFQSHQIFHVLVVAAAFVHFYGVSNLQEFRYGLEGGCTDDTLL
Assay: Measurement of AMPK phosphorylation ability (Assay 1), HEK 293T cells, Western blotting
Assay type: cell-based
Parameters: HEK 293T cells (ATCC; CRL-3216, medium; host or cells: HEK 293T
Conditions: 10 minutes
Description: The AMPK phosphorylation ability of the respective compounds according to the present invention was measured by using differentiated C2C12 cells or HEK 293T cells.
HEK 293T cells (ATCC; CRL-3216, medium; DMEM, Fetal Bovine Serum (FBS)) were cultured in a 12- or 24-well plate until they reached 100% confluency (37° C., 5% CO2).
After starvation, a test compound listed in Tables 10 and 11 (concentration: 25 μM, 50 μM) was added thereto, and after 10 minutes, the medium was discarded and the plate was frozen with liquid nitrogen.
To the 12- or 24-well cell plate which had been frozen was added 100 or 150 μL of Cell lysis buffer pH 7.4 (50 mM HEPES (pH 7.4), 2 mM sodium orthovanadate, 10 mM sodium pyrophosphate, 10 mM NaF, 2 mM EDTA, 2 mM EGTA, 0.1% (v/v) NP-40, 0.2 mM PMSF), and the cells were scraped off with a cell scraper, suspended and transferred into a micro centrifugal tube. And then, the cells were ultrasonically crushed (1 second×3 times) with a sonicator. Centrifugation was performed at 4° C. at 15,000 rpm for 15 minutes, and the supernatant was recovered into a new tube.
To 100 μL of the supernatant was added 25 μL of 5× sample buffer (280 mM Tris-HCl (pH 6.9), 40% glycerol, 10% (3-mercaptoethanol, 13% SDS, a small amount of bromophenol blue) and mixed together. The rest of the supernatant was used for protein quantification, and the protein concentrations were uniformed by adding 1× sample buffer depending on the concentration of each sample.
An electrophoresis chamber was filled with 1× SDS buffer (25 mM Tris-HCl, 250 mM glycine, 0.1% SDS), and the sample was applied to a well of polyacrylamide gel. Electrophoresis was performed until the bromophenol blue in the sample reached to the bottom of the gel.
A filter paper was soaked in 1× Transfer buffer sufficiently, above which the PVDF membrane and the gel after electrophoresis were stacked in this order, and thereabove a filter paper which had been soaked in 1× Transfer buffer sufficiently was further stacked, from which an air was removed and the resultant was set in semi-dry type transfer apparatus and transferred (7V, 35 minutes).
An unnecessary portion of the blotted membrane was cutoff, and the rest was immediately soaked in blocking buffer (5% skimmed milk in Rinse buffer), and shaken at room temperature at 40 rpm for 3 hours.
After blocking, the membrane was transferred into Rinse buffer, and washed at room temperature for 10 minutes while shaking. The membrane was soaked in a primary antibody solution (AMPK alpha Antibody (Cell signaling; #2532) 1/1,000 in Rinse buffer, Phospho-AMPK alpha (Thr172) (40H9) antibody (Cell signaling; #2535) 1/1,000 in Rinse buffer), and shaken at 4° C. at 40 rpm overnight.
The membrane was soaked in a secondary antibody solution (goat anti-rabbit IgG-HRP Antibody (Santa Cruz; sc-2030) 1/2,000 in Rinse buffer), and shaken at room temperature at 40 rpm for 1 hour.
After the membrane was washed for 45 minutes in the same way as after the primary antibody reaction, the membrane was soaked in a chemiluminescent reaction solution (ECL Western Blotting Detection Reagents, GE Healthcare) for about 1 minute. An excess of the reaction solution was removed, and then the membranes were arranged on a transparent film and sandwiched with it, with which an X-ray film was exposed in a darkroom (for about several seconds to 60 seconds) to develop the film.
The X-ray film was scanned to take the image, for which the band was measured by using the image analysis software “Image J” to determine the respective amounts of pAMPK and AMPK.

SMILES | pAMPK/AMPK (%) (25 μM) | pAMPK/AMPK (%) (50 μM)
Cc1ccccc1CN1CCC(NC(=O)COc2ccc(C(C)C)cc2)CC1 [Compound 1] | 70.10 | 63.92
CC(C)c1ccc(OCC(=O)NC2CCN(C(C)c3ccccc3)CC2)cc1 (stereo not drawn) [Compound 2] | 77.78 | 90.47
Cc1cc(OCC(=O)NC2CCN(C(N)=O)CC2)ccc1C(C)C [Compound 3] | 39.02 | 44.32
COc1ccccc1CN1CCC(NC(=O)COc2ccc(C)cc2)CC1 [Compound 4] | 47.44 | 45.44
CCc1ccc(OCC(=O)NC2CCN(Cc3ccc(OC)c(F)c3)CC2)cc1 [Compound 5] | 69.72 | 62.88
CC(C)(C)c1ccc(OCC(=O)NC2CCN(Cc3ccc(F)cc3)CC2)cc1 [Compound 6] | 24.57 | 60.56
CC(c1ccccc1)N1CCC(NC(=O)COc2ccc(-c3ccccc3)cc2)CC1 (stereo not drawn) [Compound 7] | 79.86 | 94.13
Cc1ccc(C(=O)N2CCC(NC(=O)COc3ccc(C(F)(F)F)cc3)CC2)cc1 [Compound 8] | 77.49 | 72.23
CC(c1ccccc1)N1CCC(NC(=O)COc2ccc(C(F)(F)F)cc2)CC1 (stereo not drawn) [Compound 9] | 23.69 | 62.46
O=C(COc1ccc(I)cc1)NC1CCN(Cc2ccccc2)CC1 [Compound 10] | 83.62 | 72.56
COc1cc(C(C)=O)ccc1OCC(=O)NC1CCN(C(C)c2ccccc2)CC1 (stereo not drawn) [Compound 13] | 40.65 | 39.95
CC(=O)c1ccc(OCC(=O)NC2CCN(Cc3ccccc3)CC2C)cc1 (stereo not drawn) [Compound 14] | 63.62 | 51.87
CCC(=O)c1ccc(OCC(=O)NC2CCN(Cc3ccccc3C)CC2)cc1 [Compound 16] | 55.49 | 46.30
CCC(=O)c1ccc(OCC(=O)NC2CCN(Cc3ccc(Cl)c(Cl)c3)CC2)cc1 [Compound 17] | 88.72 | 75.82
CCC(=O)c1ccc(OCC(=O)NC2CCN(Cc3ccccc3)CC2C)cc1 (stereo not drawn) [Compound 18] | 59.58 | 72.81
NC(=O)c1ccc(OCC(=O)NC2CCN(Cc3ccc(F)c(F)c3)CC2)cc1 [Compound 20] | 47.30 | 60.30
CCOc1ccc(C(=O)N2CCC(NC(=O)COc3ccc([N+](=O)[O-])cc3)CC2)cc1 [Compound 22] | 61.45 | 67.26
CCOc1ccccc1C(=O)N1CCC(NC(=O)OCc2ccc([N+](=O)[O-])cc2)CC1 [Compound 23] | 51.41 | 49.81
COc1ccc(CN2CCC(NC(=O)COc3ccc([N+](=O)[O-])cc3)CC2)cc1F [Compound 24] | 23.68 | 60.46
O=C(COc1ccc(N2CCCC2=O)cc1)NC1CCN(C(=O)c2ccccc2F)CC1 [Compound 25] | 40.07 | 42.87

SMILES | pAMPK/AMPK (%) (25 μM) | pAMPK/AMPK (%) (50 μM)
CC1CN(Cc2ccccc2)CCC1NC(=O)COc1ccc(N2CCCC2=O)cc1 (stereo not drawn) [Compound 26] | 55.06 | 56.65
CCOc1ccc(C(=O)N2CCC(NC(=O)COc3ccc(N4CCCC4=O)cc3)CC2)cc1 [Compound 27] | 45.54 | 37.30
Cc1cccc(CN2CCC(NC(=O)COc3ccc(C4SCCCS4)cc3)CC2)c1 [Compound 28] | 71.21 | 78.89
Cc1ccc(C(=O)N2CCC(NC(=O)COc3ccc(C4SCCCS4)cc3)CC2)cc1 [Compound 29] | 72.45 | 74.42
CCOc1ccc(OCC(=O)NC2CCN(Cc3ccccc3C)CC2)cc1 [Compound 39] | 64.98 | 61.18
CCCOc1ccc(OCC(=O)NC2CCN(Cc3ccccc3)C(C)C2)cc1 (stereo not drawn) [Compound 41] | 62.03 | 69.38
CCCOc1ccc(OCC(=O)NC2CCN(C(=O)c3ccc(C)cc3)CC2)cc1 [Compound 42] | 69.97 | 89.62
CCCOc1ccc(OCC(=O)NC2CCN(C(C)c3ccccc3)CC2)cc1 (stereo not drawn) [Compound 43] | 77.13 | 82.95
CCCOc1ccc(OCC(=O)NC2CCN(C(=O)c3ccc(OCC)cc3)CC2)cc1 [Compound 44] | 72.14 | 78.77
O=C(COc1ccc(Oc2ccccn2)cc1)NC1CCN(Cc2ccccc2)CC1 [Compound 45] | 67.44 | 82.01
COc1ccccc1CN1CCN(C(=O)CCNC(=O)c2ccccc2C)CC1 [Compound 49] | 42.40 | 34.07
COc1ccc(CN2CCN(C(=O)CCNC(=O)c3ccccc3C)CC2)cc1OC [Compound 50] | 39.00 | 71.13
COc1ccc(CN2CCN(C(=O)CCNC(=O)c3ccccc3)CC2)c(OC)c1OC [Compound 51] | 33.33 | 55.14
CC(C)(C)c1ccc(C(=O)NCCC(=O)N2CCN(Cc3cccc(O)c3)CC2)cc1 [Compound 52] | 66.63 | 85.17
O=C(NCCC(=O)N1CCN(Cc2cccc(O)c2)CC1)c1ccc(Cl)cc1 [Compound 54] | 57.51 | 33.78
O=C(NCCC(=O)N1CCN(Cc2ccc(F)cc2Cl)CC1)c1ccc(Cl)cc1 [Compound 55] | 61.64 | 105.20
O=C(NCCC(=O)N1CCN(Cc2cccc(O)c2)CC1)c1ccc(Br)cc1 [Compound 56] | 49.23 | 40.38
COc1ccccc1CN1CCN(C(=O)CCNC(=O)c2ccc(Cl)cc2)CC1 [Compound 57] | 30.26 | 45.31
COc1ccccc1CN1CCN(C(=O)CCNC(=O)c2ccc(Br)cc2)CC1 [Compound 58] | 41.20 | 62.58
